In US6407138B1, “Composition and method for preparing electrically neutral amino acid chelates free of interfering ions” (Albion International, Inc., priority 2000, dated 2002):

Assays:
[1] = Rubbing between thumb and finger (hygroscopicity); assay type: physicochemical; settings: rubbed between thumb and finger; moisture from thumb, finger and surrounding air
Source text: Sample 1 was further compared to Sample 2 by rubbing a portion of each between the thumb and finger.

Particle size = assay type: physicochemical
Source text: The particle size found in Sample 1 and Sample 2 was about 70 mesh.

[2] = Shaking in a plastic bag (electrostatic behaviour of the powder); assay type: physicochemical; settings: shaken in a plastic bag
Description: A 10:1 mixture of copper bisglycinate to terra alba (CaSO4) [Sample 1] was prepared and shaken together in a plastic bag. Next, a pure copper bisglycinate without the presence of terra alba [Sample 2] was also prepared and shaken in a plastic bag.

[3] = Addition to stimulated gastric solution (stability in acid solution, colour change); assay type: physicochemical; settings: added to stimulated gastric solution
Description: Finally, Sample 2 was added to a stimulated gastric solution which caused the product to change color. Sample 1 was similarly added to a stimulated gastric solution.

[4] = zero ionic strength; reaction M^2+ + (Gly)^- <-> M(Gly)^+; cited from earlier work

Compound: NCC(=O)[O-].NCC(=O)[O-].[Cu+2] [Sample 2, copper bisglycinate]
- hygroscopicity: balling up with moisture [1]: quickly balled up
- particle size (Particle size): about 70 mesh
- electrostatic behaviour: product sticking to the walls of the bag [2]: a blue hazei of product stuck the walls of the bag
- color change in stimulated gastric solution (stability in acid solution) [3]: change color

Compound: copper
- log of the equilibrium constant [4]: 8.56
